Consider one compound from US20020192178A1, “Leguminous extract heavy-metal-scavenging anti-pollution agent” (L'OREAL, priority 2001, published 2002).

In this test the test system is immortalized human keratinocytes (DK7-NR). Kind of test: Protective effect against cadmium cytotoxicity, Neutral Red incorporation test. Format: cell-based. The settings on record: cadmium chloride alone, 0% extract of maize, 24 hours; read-out: IC50 (concentration of CdCl2 inducing a 50% decrease in viability). As to the method:
Heavy metals such as cadmium, nickel, lead, mercury, etc. can cause cytotoxicity on the cells of various organs including the skin. The cytotoxic effect of cadmium on human keratinocytes in culture was evaluated by a technique for measuring the cell viability: the Neutral Red incorporation test (Culture Methods. 1984, 9, 7-9).
The study was performed on a monolayer culture of immortalized human keratinocytes (DK7-NR) by the Nestle research center. The cells are inoculated on D-3 in 96-well culture dishes at a rate of 25 000 cells/cm^2 in 100 µl of culture medium (medium defined without calf serum, NR2, Biofluids). The incubations are performed in an incubator at 37° C. in humid atmosphere enriched with 5% CO2.
The cells are treated [lacuna] 24 hours with increasing concentrations (0, 10, 25, 50, 75, 100, 150 and 200 μM) of cadmium chloride (CdC12) alone, so as to determine its cytotoxicity. In parallel, a treatment is performed under the same conditions, but in the presence of the extract of maize (Phytovityl® at 0.5% and 1%, non-cytotoxic concentrations for the cells). The incubations are performed in an incubator at 37° C., 5% CO2 in a humid atmosphere.
At the end of the contact period, the cell viability is determined by means of a Neutral Red (POS 55/006) incorporation test, with spectrophotometric reading at 500 nm. […]

On to `[Cl][Cd][Cl]` [cadmium chloride], for which the IC50 worked out at 37.7 µM.
